Measurements as given in patent US20180030080A1, “Phosphoramidate nucleoside prodrug for treating viral diseases and cancer, processes for their preparation and their use” (ASAVI, LLC, priority 2016, published 2018).
Like-named read-outs stand apart in the source and are kept apart here.

Experiments:
[1] = system: HBV wild-type; details: against both the wild-type and resistant mutant; cited from earlier work
[2] = system: HBV lamivudine-entecavir resistant clone (L180M+M204V+S202G); details: resistant mutant (L180M+M204V+S202G); cited from earlier work
[3] = system: HBV; assay: Anti-HBV activity in the AD-38 cell line using real-time quantitative PCR; assay type: cell-based
Protocol: Anti-HBV activity of prodrugs of general formula 1 determination in the AD-38 cell line using a real-time quanitative PCR. a) Cell cultures. HepG2 AD38 cell line, harboring an integrated over-the-length HBV genomic DNA (Lander S, et. al, Antimicrobal Agents and Chemotherapy, 1997, pg. 1715-1720) were provided by Dr. C. Seeger, Fox Chase Cancer Center, Philadelphia, Pa.). Cells were grown in complete media (DMEM/F12 with 2 mM L-Glutamine (Thermo Scientific, Cat #11320033), 10% Fetal Bovine Serum (ThermoFisher Scientific, Cat#), 1% Antibiotic-antimitotic solution (ThermoFisher Scientific, Cat#15240096), and 0.3 μg/ml tetracyclin (Sigma, Cat # T7660-5G). Cells were plated onto Corning Biocoat 96-well plates (Corning, Cat #356407) in 225 ul of complete media (without teracyclin), 20000 cells/well. The prodrugs of general formula 1 were dissolved first in DMSO (Sigma cat. D2650), then in DMEM/F12 and 9 serial 3× dilutions were prepared and added to cells in 22.5 μl. The final prodrugs concentrations ranged from 10 μM to 1 nM. Cells grown in the presence of tetracyclin were used as a positive control, as HBV replication in this cell line is turned off by thetracyclin. Cell plates were incubated for 4 days at 37 C, 5% CO2. b) HBV DNA isolation. After 4 days, viral DNA was isolated from culture supernatants using PureLink® Pro 96 Genomic DNA Purification Kit (ThermoFisher Scientific, Cat # K183104A), according to manufacturer's recommendations. Eluted DNA samples were stored at −20 C. c) Quantitative real-time PCR (qPCR). PCR was performed on the CFX96™ Real-Time System (Bio-Rad, Hercules, Calif.) using AmpliTaq Gold® DNA Polymerase (Applied Biosystems®).
Ct values (cycle threshold) were obtained for each prodrug sample and normalized to untreated cells, according to formula E=(1/(1+100%))̂(Ct[studied prodrug sample]−Ct[K-]), where E is a normalized expression of studied gene, Ct[K-] and Ct[studied prodrug sample] are Ct values of untreated cells and studied prodrug sample. Inhibition curves were obtained and EC50 values were calculated using the Graph Prizm software (Table 3).

[4] = Cytotoxicity (viability, CC50) reported with the anti-HBV test; assay type: cell-based; details: human, HepG2 AD38 cells
[5] = system: HepG2 AD38 cell line; assay: as above; assay type: cell-based; details: concentration not given
[6] = system: wild-type HIV-1; details: cited from earlier work
[7] = 28-day toxicity studies in multiple species; cited from earlier work
[8] = system: HCV replicon; details: cited from earlier work
[9] = in the clinic; cited from earlier work
[10] = system: xenograft models of human pancreatic cancer; details: in vivo; cited from earlier work
[11] = system: Huh7; assay: Cytotoxicity in Huh7 cells (ATPLite); assay type: cell-based, human; details: at a concentration of 100 μM
Protocol: The cytotoxicity of the test compounds was studied in parallel using the same cell line, Huh7. Cell viability was determined using the ATPLite Kit (Perkin-Elmer, Boston, USA), according to manufacturer's instructions. 96-well black/transparent bottom plates were seeded with cells at a density of 7.5×10^3 cells per well in 50 μl medium. After 18 hours, compound treatment was initiated by adding 50 μl of compound dilution into the plates. Each compound dilution was tested in triplicates. The cells and inhibitors were then incubated for 96 hours at 37° C./5% CO2. The plates were washed twice with PBS (0.2 ml/well), and then lysed by adding lysis buffer, 0.05 ml/well (all reagents were included with the ATPLite Kit). After rocking for 5 min on a rocking platform, substrate buffer was added (0.05 ml/well). After additional 5-min incubation, the plates were kept in dark for 10 min, and the luminescence was read using TopCount NXT (Packard, Perkin Elmer). CC50 values for all test compounds were determined using XLfit 4.1 software.

[12] = system: HCV replicon gT1b; assay: HCV replicon assay, genotype gT1b; assay type: cell-based; details: Hepatitis C virus
Protocol: (§1) Anti-HCV activity (EC50) and cytotoxicity (CC50) of prodrugs of general formula 1. The HCV replicon assay was used to determine the antiviral activity of chemotherapeutic agents of general formula 1 (test compounds). Sovaldi (PSI-7977) was used as the reference drug. The test cell line used in the HCV Replicon Assay was the human hepatoma cell line Huh7 incorporating the HCV replicons synthesized by an outside vendor. 96-well plates were seeded with cells at a density of 7.5×10^3 cells per well in 50 μl of assay media. The compound stock solution was made up freshly in an assay medium (DMEM 1×, Cellgro; cat. #10-013-CV) as a 2× stock. A total of 11 serial 3-fold dilutions of test compounds were prepared from the 2× stock in the assay media ranging from 20 nM-0.2 pM final concentrations. At least 4 hours after seeding the cells, compound treatment was initiated by adding 50 μl of compound dilution to the plates. […] The final DMSO concentration was 0.5%. Cells and inhibitors were incubated for 3 days at 37° C./5% CO2. The media was removed from the plates by gentle tapping. The cells were fixed with 100 μl 1:1 acetone:methanol for 1 minute, washed three times with PBS buffer, and then blocked with 150 μl/well 10% Fetal Bovine Serum (FBS) in PBS for 1 hour at room temperature. The cells were then washed three times with PBS buffer and incubated with 100 μl/well anti-hepatitis C core mAb (Affinity BioReagents; cat. # MA1-080, 1 mg/ml stock diluted 1:4,000 in 10% FBS-PBS) for 2 hours at 37° C. Then, the cells were washed three times with PBS and incubated with 100 μl/well HRP-Goat Anti-Mouse antibody (diluted 1:3.500 in 10% FBS-PBS) for 1 hour at 37° C. The cells were then washed three times with PBS and developed with an OPD solution, 100 μl/well (1 OPD tablet+12 ml citrate/phosphate buffer+5 μl 30% H2O2 per plate), for 30 minutes in the dark at room temperature. The reaction was stopped with 2N H2SO4 (100 μl/well), and the absorbance was measured at A490 X on a Victor^3 V 1420 multilabel counter (Perkin Elmer). The EC50 values were calculated for test compounds from the resulting best-fit equations determined by Xlfit software (Table 1).

[13] = system: HCV replicon gT3a; assay: HCV replicon assay, genotype gT3a; assay type: cell-based; details: Hepatitis C virus, mean
Protocol: as §1, with “The cells were then washed three times with PBS and developed with an OPD solution, 100 μl/well (1 OPD tablet+12 ml citrate/phosphate buffer+5 μl 30% H2O2 per plate), for 30 minutes in the dark at room temperature.” left out

[14] = system: HCV replicon gT1a; assay: HCV replicon assay, genotype gT1a; assay type: cell-based; details: Hepatitis C virus, mean
Protocol: as §1, with “The cells were then washed three times with PBS and developed with an OPD solution, 100 μl/well (1 OPD tablet+12 ml citrate/phosphate buffer+5 μl 30% H2O2 per plate), for 30 minutes in the dark at room temperature.” left out

[15] = system: HCV replicon gT4a; assay: HCV replicon assay, genotype gT4a; assay type: cell-based; details: Hepatitis C virus, mean
Protocol: as §1, with “The cells were then washed three times with PBS and developed with an OPD solution, 100 μl/well (1 OPD tablet+12 ml citrate/phosphate buffer+5 μl 30% H2O2 per plate), for 30 minutes in the dark at room temperature.” left out

[16] = system: HCV replicon gT2a; assay: HCV replicon assay, genotype gT2a; assay type: cell-based; details: Hepatitis C virus, mean
Protocol: (§2) Anti-HCV activity (EC50) and cytotoxicity (CC50) of prodrugs of general formula 1. The HCV replicon assay was used to determine the antiviral activity of chemotherapeutic agents of general formula 1 (test compounds). Sovaldi (PSI-7977) was used as the reference drug. The test cell line used in the HCV Replicon Assay was the human hepatoma cell line Huh7 incorporating the HCV replicons synthesized by an outside vendor. 96-well plates were seeded with cells at a density of 7.5×10^3 cells per well in 50 μl of assay media. The compound stock solution was made up freshly in an assay medium (DMEM 1×, Cellgro; cat. #10-013-CV) as a 2× stock. A total of 11 serial 3-fold dilutions of test compounds were prepared from the 2× stock in the assay media ranging from 20 nM-0.2 pM final concentrations. At least 4 hours after seeding the cells, compound treatment was initiated by adding 50 μl of compound dilution to the plates. The final concentrations of compound therefore ranged from 10 nM to 0.1 pM when diluted 1:1 in culture media. The final DMSO concentration was 0.5%. Cells and inhibitors were incubated for 3 days at 37° C./5% CO2. The media was removed from the plates by gentle tapping. The cells were fixed with 100 μl 1:1 acetone:methanol for 1 minute, washed three times with PBS buffer, and then blocked with 150 μl/well 10% Fetal Bovine Serum (FBS) in PBS for 1 hour at room temperature. The cells were then washed three times with PBS buffer and incubated with 100 μl/well anti-hepatitis C core mAb (Affinity BioReagents; cat. # MA1-080, 1 mg/ml stock diluted 1:4,000 in 10% FBS-PBS) for 2 hours at 37° C. Then, the cells were washed three times with PBS and incubated with 100 μl/well HRP-Goat Anti-Mouse antibody (diluted 1:3.500 in 10% FBS-PBS) for 1 hour at 37° C. […] The reaction was stopped with 2N H2SO4 (100 μl/well), and the absorbance was measured at A490 X on a Victor^3 V 1420 multilabel counter (Perkin Elmer). The EC50 values were calculated for test compounds from the resulting best-fit equations determined by Xlfit software (Table 1).

[17] = system: HCV replicon gT5a; assay: HCV replicon assay, genotype gT5a; assay type: cell-based; details: Hepatitis C virus, mean
Protocol: as §2, with “The final concentrations of compound therefore ranged from 10 nM to 0.1 pM when diluted 1:1 in culture media.” left out

[18] = system: HIV; details: in PBMCs, relative to TFV; cited from earlier work
[19] = system: HIV; details: most potent and least cytotoxic analog; cited from earlier work

In the case of “2′-Fluoro-6′-methylene-carbocyclic adenosine phosphoramidate [5′-phosphoramidate of FMCA]”, the “more potent than FMCA” value [1] is listed as 10 fold and the EC50 [2] is listed as 54 nM.

In the case of `C=CCOC(=O)[C@H](C)N[P@](=O)(OC[C@@H]1O[C@H](n2cc(C)c(=O)[nH]c2=O)[C@H](F)[C@H]1O)Oc1ccccc1` [1.2(67), allyl (S)-2-{(S)-[(2S,3S,4R,5S)-4-fluoro-3-hydroxy-5-(5-methyl-2,4-dioxo-3,4-dihydro-2H-pyrimidin-1-yl)-tetrahydro-furan-2-ylmethoxy]-phenoxy-phosphorylamino}-propanoate], the EC50 ([3]; Hepatitis B virus, 96 h) is reported as 760 ± 110 nM, the “inhibition, %” value ([3]; against HBV, concentration not given) is reported as 88% and the CC50 [4] is reported as > 30000 nM. For the same compound, the “viability, %” value [5] was 95%.

For `CCOC(=O)[C@H](C)N[P@](=O)(OC[C@@H]1OC[C@H](n2cc(C)c(=O)[nH]c2=O)O1)Oc1ccc(Br)cc1` [DOT-phosphoramidate, D-dioxolane-thymine 5′-(4-bromophenylethyloxy-L-alanyl-phosphate)], the “more potency relative to DOT” value [6] is listed as 75 fold.

In the case of `CC(C)OC(=O)[C@H](C)N[P@](=O)(CO[C@@H]1C=C(F)C(n2cnc3c(N)ncnc32)O1)Oc1ccccc1` (stereo partly drawn) [GS-9131], the renal findings [7] is given as “no significant renal findings”.

For `COc1nc(N)nc2c1ncn2[C@@H]1O[C@H](COP(=O)(N[C@@H](C)C(=O)OCC(C)(C)C)Oc2cccc3ccccc23)[C@@H](O)[C@@]1(C)O` (stereo partly drawn) [INX-08189], the EC50 [8] is given as 10 nM and the cardiovascular toxicity [9] is given as “severe cardiovascular toxicity”.

For `C[C@H](NP(=O)(OC[C@H]1O[C@@H](n2ccc(N)nc2=O)C(F)(F)[C@@H]1O)Oc1ccccc1)C(=O)OCc1ccccc1` (stereo partly drawn) [NUC-1031, Gemcitabin-5′-phosphoramidate], the tumor volume [10] is given as “significantly reduced tumor volume”.

`CC(C)OC(=O)[C@H](C)NP(=O)(OC[C@H]1O[C@@H](n2ccc(=O)[nH]c2=O)[C@](C)(F)[C@@H]1O)Oc1ccccc1` (stereo partly drawn) [PSI-7851, reference compound] gave a Cell death [11] of 31%, an IC50 ([12]; GT1B, read-out: IC50 HCV gT1b 10% FBS (mean)) of 61 nM and an IC50 ([12]; gT1b, 40% NHS, mean, read-out: IC50 HCV gT1b 40% NHS (mean)) of 80 nM. The IC50 [13] was 152 nM, the IC50 [14] was 103 nM and the IC50 [15] was 350 nM. It also gave an IC50 [16] of 39 nM and an IC50 [17] of 395 nM.

For `CC(C)OC(=O)[C@H](C)N[P@](=O)(CO[C@H](C)Cn1cnc2c(N)ncnc21)Oc1ccccc1` [TAF, (S)-Isopropyl 2-(((S)-((((R)-1-(6-amino-9H-purin-9-yl)propan-2-yl)oxy)methyl)(phenoxy)-phosphoryl)amino)propanoate], the “more potent than TFV” value [18] is listed as 400 fold.

For `CCOC(=O)[C@H](C)N[P@](=O)(OC[C@@H]1OC[C@H](n2cnc3c(NC4CC4)ncnc32)O1)Oc1ccccc1` [dioxolane-A mono-phosphoramidate], the EC50 [19] is listed as 86 nM.
